In patent US9409952B2, “Peptide-compound cyclization method” (Chugai Seiyaku Kabushiki Kaisha, priority 2011, dated 2016):
Like-named read-outs stand apart in the source and are kept apart here. Starred links: 1 amine or outer side, 2 acyl side, 3 side chain; linkers in the order of their positions; H or OH if unused. Positions of bridges follow the written chain, without caps; N, C: chain ends. Non-standard residues stand in square brackets, D forms with d. Residues, ends and D or L forms follow the SMILES beside them. *: point of attachment. NMeF = CN[C@@H](Cc1ccccc1)C(=O)O; NMeI = CC[C@H](C)[C@H](NC)C(=O)O; NMeβAla = CN(CCC(=O)[*:2])[*:1]; NMeL = CN[C@@H](CC(C)C)C(=O)O; NMeV = CN[C@H](C(=O)O)C(C)C; NMeA = CN[C@@H](C)C(=O)O; Piperidide = C1CCN(*)CC1; dNMeA = CN[C@H](C)C(=O)O; Sar = CNCC(=O)O; tBu = CC(C)(C)*

Experiments:
[1] = PAMPA (parallel artificial membrane permeability assay); format: in vitro ADME; details: PAMPA
Method in brief: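 Artificial membrane was 10% (w/v) egg lecithin plus 0.5% (w/v) cholesterol in dodecane on a PVDF filter. A 10 mM DMSO stock was added at 0.5% (v/v) to donor buffer (50 mM MOPSO, pH 6.5, 5.0% glycocholic acid). After 18 h at 37 °C, LC/MS or LC/UV gave donor and acceptor levels for Pe.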

[2] = Metabolic stability in human hepatic microsome; format: in vitro ADME; details: microsomes
[3] = membrane permeation rate (Pe), 50 mM MOPSO buffer pH 6.5 with 5.0% glycocholic acid, 37° C., 18 hours, read-out: iPAMPA Pe
[4] = pH 7.4, human hepatic microsome, NADPH(+), read-out: CL NADPH(+)

Structure (SMILES)	Papp at 18 hours, 50 µM [1, 3] [×10⁻⁶ cm/s]	microsomal CLint at 1 uM [2, 4] [µL/min/mg]	Papp at 18 hours, 50 µM ([1]; pH 6.5) [×10⁻⁶ cm/s]	microsomal CLint at 1 uM ([2]; human, pH 7.4, CL NADPH(+)) [µL/min/mg]
CC(C)C[C@@H]1NC(=O)[C@@H](C)NC(=O)C[C@@H](C(=O)N2CCCCC2)NC(=O)[C@H](CC(C)C)N(C)C(=O)[C@H](C)N(C)C(=O)[C@H](CC(C)C)N(C)C(=O)[C@H](CC(C)C)N(C)C(=O)[C@H](Cc2ccccc2)N(C)C(=O)[C@H](C)NC(=O)[C@H](Cc2ccccc2)N(C)C(=O)[C@H]([C@@H](C)O)NC1=O [DP-139] ([dA]LT[NMeF]A[NMeF][NMeL][NMeL][NMeA][NMeL]D-Piperidide; lactam N-11)	23	22		
CC[C@H](C)[C@@H]1NC(=O)[C@H](C)N(C)C(=O)CCN(C)C(=O)C[C@@H](C(=O)N2CCCCC2)NC(=O)[C@H](CC(C)C)N(C)C(=O)[C@H](CC(C)C)N(C)C(=O)[C@H](C)N(C)C(=O)[C@H]([C@@H](C)O)NC(=O)[C@H](Cc2ccccc2)N(C)C(=O)[C@H](Cc2ccccc2)N(C)C1=O [DP-140] ([NMeβAla][NMeA]I[NMeF][NMeF]T[NMeA][NMeL][NMeL]D-Piperidide; lactam N-10)	61	96		
CC[C@H](C)[C@H]1C(=O)N[C@H](C(=O)N2CCCCC2)CC(=O)N(C)[C@H](C)C(=O)N[C@@H](Cc2ccccc2)C(=O)N(C)[C@@H](C)C(=O)N(C)[C@@H](CC(C)C)C(=O)N[C@@H]([C@@H](C)O)C(=O)N(C)CC(=O)N(C)[C@@H](C(C)C)C(=O)N[C@@H](C)C(=O)N1C [DP-142] ([dNMeA]F[NMeA][NMeL]T[Sar][NMeV]A[NMeI]D-Piperidide; lactam N-10)			4	22
CC(C)C[C@@H]1NC(=O)[C@H](C(C)C)N(C)C(=O)[C@H](Cc2ccccc2)NC(=O)CN(C)C(=O)[C@H]([C@@H](C)O)NC(=O)[C@H](C)N(C)C(=O)[C@H](CC(C)C)N(C)C(=O)[C@@H](C(C)C)NC(=O)C[C@@H](C(=O)N2CCCCC2)NC(=O)[C@H](C)NC(=O)[C@H](CC(C)C)N(C)C1=O [DP-143] ([dV][NMeL][NMeA]T[Sar]F[NMeV]L[NMeL]AD-Piperidide; lactam N-11)			20	25
CC[C@H](C)[C@H]1C(=O)N[C@H](C(=O)N2CCCCC2)CC(=O)N(C)[C@H](C)C(=O)N(C)[C@@H](C)C(=O)N(C)CC(=O)N(C)[C@@H](CC(C)C)C(=O)N[C@@H]([C@@H](C)O)C(=O)N(C)[C@@H](Cc2ccccc2)C(=O)N(C)[C@@H](CC(C)C)C(=O)N[C@@H](COC(C)(C)C)C(=O)N1C [DP-144] ([dNMeA][NMeA][Sar][NMeL]T[NMeF][NMeL]S(tBu)[NMeI]D-Piperidide; lactam N-10)			65	125
CC[C@H](C)[C@H]1C(=O)N[C@@H](CC(C)C)C(=O)N(C)[C@@H](Cc2ccccc2)C(=O)N(C)[C@@H](CC(C)C)C(=O)N[C@@H]([C@@H](C)O)C(=O)N[C@@H](Cc2ccccc2)C(=O)N(C)[C@@H](C(C)C)C(=O)N[C@H](C(=O)N2CCCCC2)CC(=O)N(C)CC(=O)N[C@@H](C)C(=O)N1C [DP-145] ([Sar]A[NMeI]L[NMeF][NMeL]TF[NMeV]D-Piperidide; lactam N-10)	29	232		
CC(C)C[C@@H]1NC(=O)[C@@H]2CCCN2C(=O)[C@H](Cc2ccccc2)N(C)C(=O)[C@H](C)N(C)C(=O)[C@H]([C@@H](C)O)NC(=O)[C@@H](C(C)C)NC(=O)C[C@@H](C(=O)N2CCCCC2)NC(=O)[C@H](CC(C)C)N(C)C(=O)[C@H](C)N(C)C(=O)[C@H](Cc2ccccc2)NC(=O)[C@H](C(C)C)N(C)C1=O [DP-146] ([dV]T[NMeA][NMeF]PL[NMeV]F[NMeA][NMeL]D-Piperidide; lactam N-11)			26	52
CC[C@H](C)[C@H]1C(=O)N[C@@H](C)C(=O)N(C)[C@@H](CC(C)C)C(=O)N(C)[C@@H](Cc2ccccc2)C(=O)N[C@@H]([C@@H](C)O)C(=O)N(C)[C@@H](Cc2ccccc2)C(=O)N(C)[C@@H](CC(C)C)C(=O)N(C)[C@@H](CC(C)C)C(=O)N[C@H](C(=O)N2CCCCC2)CC(=O)N(C)CC(=O)N1C [DP-147] ([Sar][NMeI]A[NMeL][NMeF]T[NMeF][NMeL][NMeL]D-Piperidide; lactam N-10)			29	147
CC(C)C[C@H]1C(=O)N[C@@H](COC(C)(C)C)C(=O)N[C@H](C(=O)N2CCCCC2)CC(=O)N[C@H](C)C(=O)N(C)[C@@H](C)C(=O)N(C)[C@@H](Cc2ccccc2)C(=O)N(C)[C@@H](CC(C)C)C(=O)N[C@@H]([C@@H](C)O)C(=O)N(C)[C@@H](C)C(=O)N1C [DP-148] ([dA][NMeA][NMeF][NMeL]T[NMeA][NMeL]S(tBu)D-Piperidide; lactam N-9)			31	69
CC(C)C[C@H]1C(=O)N[C@@H]([C@@H](C)O)C(=O)N(C)[C@@H](C)C(=O)N[C@H](C(=O)N2CCCCC2)CC(=O)N(C)[C@@H](C)C(=O)N[C@@H](C)C(=O)N(C)[C@@H](Cc2ccccc2)C(=O)N(C)[C@@H](CC(C)C)C(=O)N[C@@H](Cc2ccccc2)C(=O)N1C [DP-150] ([NMeA]A[NMeF][NMeL]F[NMeL]T[NMeA]D-Piperidide; lactam N-9)	33	701		
CC(C)C[C@H]1C(=O)N(C)[C@@H](CC(C)C)C(=O)N(C)CC(=O)N(C)[C@@H](Cc2ccccc2)C(=O)N[C@@H](C)C(=O)N(C)[C@@H](Cc2ccccc2)C(=O)N(C)[C@@H](CC(C)C)C(=O)N[C@@H]([C@@H](C)O)C(=O)N[C@H](C(=O)N2CCCCC2)CC(=O)N[C@H](C(C)C)C(=O)N(C)[C@@H](C)C(=O)N1C [DP-151] ([dV][NMeA][NMeL][NMeL][Sar][NMeF]A[NMeF][NMeL]TD-Piperidide; lactam N-11)	27	30		
CC[C@H](C)[C@H]1C(=O)N[C@H](C(=O)N2CCCCC2)CC(=O)N(C)[C@@H](C)C(=O)N(C)[C@@H](CC(C)C)C(=O)N(C)[C@@H](Cc2ccccc2)C(=O)N[C@@H]([C@@H](C)O)C(=O)N(C)CC(=O)N(C)[C@@H](CC(C)C)C(=O)N[C@@H](COC(C)(C)C)C(=O)N1C [DP-152] ([NMeA][NMeL][NMeF]T[Sar][NMeL]S(tBu)[NMeI]D-Piperidide; lactam N-9)	61	93		
CC(C)C[C@H]1C(=O)N(C)[C@@H](Cc2ccccc2)C(=O)N(C)[C@@H](CC(C)C)C(=O)N[C@@H](Cc2ccccc2)C(=O)N[C@@H]([C@@H](C)O)C(=O)N(C)[C@@H](C)C(=O)N[C@H](C(=O)N2CCCCC2)CC(=O)N(C)CCC(=O)N[C@@H](C)C(=O)N1C [DP-153] ([NMeβAla]A[NMeL][NMeF][NMeL]FT[NMeA]D-Piperidide; lactam N-9)	26	179		
CC[C@H](C)[C@H]1C(=O)N[C@H](C(=O)N2CCCCC2)CC(=O)N(C)CCC(=O)N(C)[C@@H](Cc2ccccc2)C(=O)N(C)[C@@H](CC(C)C)C(=O)N[C@@H]([C@@H](C)O)C(=O)N(C)CC(=O)N(C)[C@@H](CC(C)C)C(=O)N[C@@H](COC(C)(C)C)C(=O)N1C [DP-155] ([NMeβAla][NMeF][NMeL]T[Sar][NMeL]S(tBu)[NMeI]D-Piperidide; lactam N-9)			55	101
CC(C)C[C@H]1C(=O)N(C)[C@@H](Cc2ccccc2)C(=O)N[C@@H](Cc2ccccc2)C(=O)N(C)[C@@H](CC(C)C)C(=O)N[C@@H]([C@@H](C)O)C(=O)N(C)[C@@H](C)C(=O)N[C@H](C(=O)N2CCCCC2)CC(=O)N(C)[C@H](C)C(=O)N[C@@H](C)C(=O)N1C [DP-157] ([dNMeA]A[NMeL][NMeF]F[NMeL]T[NMeA]D-Piperidide; lactam N-9)	27	368		
CC(C)C[C@H]1C(=O)N(C)[C@@H](Cc2ccccc2)C(=O)N(C)[C@@H](Cc2ccccc2)C(=O)N[C@@H]([C@@H](C)O)C(=O)N(C)[C@@H](C)C(=O)N(C)[C@@H](CC(C)C)C(=O)N[C@H](C(=O)N2CCCCC2)CC(=O)N(C)[C@@H](C)C(=O)N(C)[C@@H](CC(C)C)C(=O)N(C)[C@@H](CC(C)C)C(=O)N[C@@H](C)C(=O)N1C [DP-158] ([NMeA][NMeL][NMeL]A[NMeL][NMeF][NMeF]T[NMeA][NMeL]D-Piperidide; lactam N-11)	49	41		
CC[C@H](C)[C@@H]1NC(=O)CCN(C)C(=O)C[C@@H](C(=O)N2CCCCC2)NC(=O)[C@H](Cc2ccccc2)N(C)C(=O)[C@H](CC(C)C)N(C)C(=O)[C@H](C)N(C)C(=O)[C@H](Cc2ccccc2)N(C)C(=O)[C@H]([C@@H](C)O)NC(=O)[C@H](CC(C)C)N(C)C(=O)[C@H](C)N(C)C(=O)[C@H](CC(C)C)N(C)C1=O [DP-159] ([NMeβAla]I[NMeL][NMeA][NMeL]T[NMeF][NMeA][NMeL][NMeF]D-Piperidide; lactam N-11)	39	54		
CC(C)C[C@H]1C(=O)N[C@@H](COC(C)(C)C)C(=O)N[C@H](C(=O)N2CCCCC2)CC(=O)N(C)[C@H](C)C(=O)N(C)[C@@H](C)C(=O)N(C)[C@@H](Cc2ccccc2)C(=O)N(C)[C@@H](CC(C)C)C(=O)N[C@@H]([C@@H](C)O)C(=O)N(C)[C@@H](C)C(=O)N1C [DP-160] ([dNMeA][NMeA][NMeF][NMeL]T[NMeA][NMeL]S(tBu)D-Piperidide; lactam N-9)	37	68		
